Measurements: US10513523B2, “Imidazopyrazines and pyrazolopyrimidines and their use as AMPA receptor modulators” (Janssen Pharmaceutica NV, priority 2015, dated 2019)

Assays:
[1] = target: GluA1o-γ8 (GRIA1o-CACNG8 fusion construct; TARP γ8 dependent AMPA receptor) (Homo sapiens (Human), UniProt P42261+Q8WXS5); assay: Calcium flux assay (FLIPR), inhibition of glutamate response of GluA1o-γ8 channel; type: cell-based; settings: HEK293 cells stably expressing GRIA1o-CACNG8 fusion; 15 μM glutamate; pIC50 = negative log of IC50 in molar; read-out: GluR1-γ8 (pIC50) (converted)
Chain of GluA1o-γ8 (GRIA1o-CACNG8 fusion construct; TARP γ8 dependent AMPA receptor) (P42261 other isoform, or with tags, fused parts or gaps): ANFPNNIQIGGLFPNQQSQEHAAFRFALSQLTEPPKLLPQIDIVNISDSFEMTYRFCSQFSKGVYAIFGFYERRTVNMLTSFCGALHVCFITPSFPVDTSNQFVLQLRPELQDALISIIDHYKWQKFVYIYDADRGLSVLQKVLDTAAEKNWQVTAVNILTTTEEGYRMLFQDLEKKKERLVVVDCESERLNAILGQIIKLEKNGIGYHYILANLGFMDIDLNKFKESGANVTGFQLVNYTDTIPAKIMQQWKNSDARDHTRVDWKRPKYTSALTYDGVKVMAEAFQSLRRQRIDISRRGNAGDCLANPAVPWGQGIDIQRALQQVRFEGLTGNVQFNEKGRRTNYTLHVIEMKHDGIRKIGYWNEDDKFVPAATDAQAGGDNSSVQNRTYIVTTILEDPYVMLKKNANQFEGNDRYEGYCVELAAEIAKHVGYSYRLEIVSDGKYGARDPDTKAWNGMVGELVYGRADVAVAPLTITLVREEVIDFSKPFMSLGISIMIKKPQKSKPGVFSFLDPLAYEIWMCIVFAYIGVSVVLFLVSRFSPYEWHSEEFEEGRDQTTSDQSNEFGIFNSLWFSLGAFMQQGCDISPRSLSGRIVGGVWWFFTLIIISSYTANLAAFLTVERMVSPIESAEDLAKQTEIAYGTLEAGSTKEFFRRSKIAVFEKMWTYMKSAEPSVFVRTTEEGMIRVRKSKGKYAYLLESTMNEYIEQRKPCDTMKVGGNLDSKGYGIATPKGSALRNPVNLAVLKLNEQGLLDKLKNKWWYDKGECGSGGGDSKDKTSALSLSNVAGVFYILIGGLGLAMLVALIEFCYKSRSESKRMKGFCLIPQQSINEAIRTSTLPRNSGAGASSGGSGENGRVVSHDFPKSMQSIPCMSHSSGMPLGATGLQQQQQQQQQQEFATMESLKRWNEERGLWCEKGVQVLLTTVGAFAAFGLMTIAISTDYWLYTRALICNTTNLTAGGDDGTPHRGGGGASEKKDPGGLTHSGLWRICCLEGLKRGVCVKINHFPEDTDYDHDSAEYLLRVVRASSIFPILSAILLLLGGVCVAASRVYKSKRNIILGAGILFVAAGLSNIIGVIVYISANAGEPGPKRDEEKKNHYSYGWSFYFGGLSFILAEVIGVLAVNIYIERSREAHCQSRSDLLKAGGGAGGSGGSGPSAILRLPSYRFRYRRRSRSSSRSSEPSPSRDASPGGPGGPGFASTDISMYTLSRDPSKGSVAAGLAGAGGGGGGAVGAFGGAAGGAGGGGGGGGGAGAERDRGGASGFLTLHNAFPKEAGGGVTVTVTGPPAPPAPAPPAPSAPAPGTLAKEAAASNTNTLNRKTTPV
How it was run: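 Potency is the midpoint of a four-parameter logistic fit to control-normalized FLIPR calcium responses elicited by 15 μM glutamate. Stable HEK293 cells carried a fused GluA1o-γ8 construct and were preincubated with compound and calcium dye in pH 7.4 HEPES buffer.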

[2] = system: endogenous γ8-containing AMPA receptor currents; assay: Whole-cell electrophysiology on acutely-dissociated mouse hippocampal neurons; type: cell-based; settings: 10 mM glutamate, 500 ms, held at -60 mV
Procedure: The effects of selected compounds upon endogenous γ 8-containing AMPA receptor currents was evaluated using whole-cell electrophysiology on acutely-dissociated mouse hippocampal neurons. Hippocampus was chosen for this assay, since CACNG8 (the protein encoded by this gene is a type I transmembrane AMPA receptor regulatory protein i.e., TARP) is preferentially enriched in this brain region (Tomita et al. (2003). “Functional studies and distribution define a family of transmembrane AMPA receptor regulatory proteins.” J Cell Biol 161(4): 805-816.2003).
Hippocampi were dissected from C57black6 mice at 4-12 weeks postnatal, following the protocol described by Brewer (Brewer, G. J. (1997). “Isolation and culture of adult rat hippocampal neurons.” Journal of Neuroscience Methods 71(2): 143-155). The following is a brief summary of the procedure. Mice were asphyxiated with CO2 then decapitated. The brain was rapidly removed, then placed into ice-cold HABG medium. The recipe for HABG medium was: HibernateA supplemented with 2% B27 and 0.5 mM Glutamax (all reagents from Life Technologies). Hippocampi were micro-dissected from the brains, then washed with HABG without calcium (Hibernate A minus Calcium, BrainBits; 2% B27, Life Technologies; 0.5 mM glutamax, Life Technologies).
The hippocampi were then transferred to HABG without calcium, supplemented with 2 mg/mL papain (Worthington Biochemical). They were incubated at 30° C. on a roller for 40 min, then gently triturated with a fire-polished glass pipette. The supernatant containing dissociated neurons was collected, then centrifuged for 2 min at 200 g. The cell pellet was collected, and then resuspended in 8 mL of HABG. Live cells were counted, then plated onto 12 mm glass coverslips in HABG (2 mL) in 24-well plates at a density of 50-100 cells per coverslip. These cells were maintained at room temperature until use.
Whole-cell electrophysiology was performed using 1.5 mm diameter glass capillary tubes (World Precision Instruments TW150-4), pulled to a fine tip with a Sutter P-97 micropipette puller. The intracellular buffer was 90 mM KF, 30 mM KCl, 10 mM HEPES, and 5 mM EGTA, pH 7.4, 290mOs. The extracellular buffer was 135 mM NaCl, 4 mM KCl, 2 mM CaCl2, 1 mM MgCl2, 5 mM glucose, 10 mM HEPES, pH 7.4, 300 mOs. The open-tip resistances of the micropipettes using these solutions were 2-4 MΩ. Whole-cell recordings of neuron cell bodies were performed in voltage-clamp mode using an Axon Axopatch 200B amplifier. Whole-cell current was measured holding the interior of the cell at −60 mV, using a 5 kHz lowpass filter. The cells were continuously perfused through 7 mm square glass barrels using a solenoid-controlled solution switching device (Warner Instruments, PF-77B). The peak current in response to a 500 ms exposure to 10 mM glutamate every 5 seconds was measured, before and after exposure to test compound.
For analysis, the mean peak current of 5 traces in the presence of test compound was divided by the mean peak current of 5 traces prior to the addition of test compound. Compounds were tested at concentrations at least ten times higher than their estimated potency in the calcium flux assay, in order to ensure near-saturating occupancy of the receptor.

SMILES	IC50 [1] [nM]	also measured
Oc1ccc(-c2c(-c3ccc(F)cc3)nc3c(N4CCOCC4)nccn23)cc1 [Example 83, 4-[2-(4-Fluorophenyl)-8-morpholino-imidazo[1,2-a]pyrazin-3-yl]-phenol]	12.6	peak current (% control) ([2]; 10 μM test compound): 78%
Oc1ccc(-c2c(-c3ccc(F)cc3)nc3c(N4CC5(COC5)C4)nccn23)cc1 [Example 7, 4-[2-(4-Fluorophenyl)-8-(6-oxa-2-azaspiro[3.3]heptan-2-yl)imidazo[1,2-a]pyrazin-3-yl]phenol]	50.1	peak current (% control) ([2]; 10 μM test compound): 55%
Fc1ccc(-c2nc3c(N4CCOCC4)nccn3c2-c2ccc3[nH]ncc3c2)cc1 [Example 10, 4-[2-(4-Fluorophenyl)-3-(1H-indazol-5-yl)imidazo[1,2-a]pyrazin-8-yl]morpholine]	0.631	peak current (% control) ([2]; 0.1 μM test compound): 64%; peak current (% control) ([2]; 1 μM test compound): 74%
CC(=O)N1CCN(c2nccn3c(-c4ccc5c(c4)CC(=O)N5)c(-c4ccc(C#N)cc4)nc23)CC1 [Example 107, 4-[8-(4-Acetylpiperazin-1-yl)-3-(2-oxoindolin-5-yl)imidazo[1,2-a]pyrazin-2-yl]benzonitrile]	2.51	peak current (% control) ([2]; 0.1 μM test compound): 67%
CC(=O)N1CCN(c2nccn3c(-c4ccc5c(c4)CC(=O)N5)c(Cc4ccccc4)nc23)CC1 [Example 17, 5-[8-(4-Acetylpiperazin-1-yl)-2-benzyl-imidazo[1,2-a]pyrazin-3-yl]indolin-2-one]	1.26	peak current (% control) ([2]; 0.1 μM test compound): 68%
CC(=O)N1CCN(c2nccn3c(-c4ccc(O)cc4)c(-c4ccc(F)cc4)nc23)CC1 [Example 1, 1-[4-[2-(4-Fluorophenyl)-3-(4-hydroxyphenyl)imidazo[1,2-a]pyrazin-8-yl]piperazin-1-yl]ethanone]	6.31	peak current (% control) ([2]; 10 μM test compound): 81%
CC(=O)N1CCN(c2nccn3c(-c4ccc5c(c4)CC(=O)N5)c(-c4ccc(F)cc4)nc23)CC1 [Example 12, 5-[8-(4-Acetylpiperazin-1-yl)-2-(4-fluorophenyl)imidazo[1,2-a]pyrazin-3-yl]indolin-2-one]	0.398	peak current (% control) ([2]; 0.1 μM test compound): 69%
O=C1Cc2cc(-c3c(-c4ccccc4)nc4c(N5CCC(CCF)CC5)nccn34)ccc2N1 [Example 77, 5-[8-[4-(2-Fluoroethyl)-1-piperidyl]-2-phenyl-imidazo[1,2-a]pyrazin-3-yl]indolin-2-one]	0.398	–
O=C1Cc2cc(-c3c(-c4ccc(F)cc4)nn4cnccc34)ccc2N1 [Example 175, 5-[2-(4-Fluorophenyl)pyrazolo[1,5-c]pyrimidin-3-yl]indolin-2-one]	631	–
O=C1Cc2cc(-c3c(C4CC4)nc4cnc(C(F)(F)F)cn34)ccc2N1 [Example 219, 5-[2-Cyclopropyl-6-(trifluoromethyl)imidazo[1,2-a]pyrazin-3-yl]indolin-2-one]	6310	–
O=C1Cc2cc(-c3c(-c4ccc(F)cc4)nc4c(N5CCC6(CC5)OCCO6)nccn34)ccc2N1 [Example 55, 5-[8-(1,4-Dioxa-8-azaspiro[4.5]decan-8-yl)-2-(4-fluorophenyl)imidazo[1,2-a]pyrazin-3-yl]indolin-2-one]	0.2	–
O=C(NC1CCCCC1)c1nc2c(N3CCOCC3)nccn2c1-c1ccc2[nH]c(=O)[nH]c2c1 [Example 214, N-Cyclohexyl-8-morpholino-3-(2-oxo-1,3-dihydrobenzimidazol-5-yl)imidazo[1,2-a]pyrazine-2-carboxamide]	31.6	–
O=C1Cc2cc(-c3c(-c4ccccc4)nn4cnc(C(F)(F)F)cc34)ccc2N1 [Example 222, 5-[2-Phenyl-5-(trifluoromethyl)pyrazolo[1,5-c]pyrimidin-3-yl]indolin-2-one]	12.6	–
CN(c1nccn2c(-c3ccc4c(c3)CC(=O)N4)c(-c3ccc(F)cc3)nc12)C1CC1 [Example 46, 5-[8-[Cyclopropyl(methyl)amino]-2-(4-fluorophenyl)imidazo[1,2-a]pyrazin-3-yl]indolin-2-one]	5.01	–
Nc1nc2cc(-c3c(-c4ccc(F)cc4)nc4c(N5CCOCC5)nccn34)ccc2[nH]1 [Example 121, 5-[2-(4-Fluorophenyl)-8-morpholino-imidazo[1,2-a]pyrazin-3-yl]-1H-benzimidazol-2-amine]	631	–
N#CC1CN(c2nccn3c(-c4ccc5c(c4)CC(=O)N5)c(-c4ccc(F)cc4)nc23)C1 [Example 66, 1-[2-(4-Fluorophenyl)-3-(2-oxoindolin-5-yl)imidazo[1,2-a]pyrazin-8-yl]azetidine-3-carbonitrile]	3.98	–
O=C1Cc2cc(-c3c(-c4ccc(F)cc4)nc4c(N5CCC(O)CC5)nccn34)ccc2N1 [Example 37, 5-[2-(4-Fluorophenyl)-8-(4-hydroxy-1-piperidyl)imidazo[1,2-a]pyrazin-3-yl]indolin-2-one]	0.316	peak current (% control) ([2]; 0.1 μM test compound): 66%
O=C1CN(c2nccn3c(-c4ccc5c(c4)CC(=O)N5)c(C(=O)c4ccccc4)nc23)CCN1 [Example 246, 5-[2-Benzoyl-8-(3-oxopiperazin-1-yl)imidazo[1,2-a]pyrazin-3-yl]indolin-2-one]	31.6	–
O=C1Cc2cc(-c3c(-c4ccccc4)nn4c(N5CCOCC5)nccc34)ccc2N1 [Example 201, 5-(7-Morpholino-2-phenyl-pyrazolo[1,5-c]pyrimidin-3-yl)indolin-2-one]	1	–
O=C1Cc2cc(-c3c(-c4ccccc4)nn4c(N5CC[C@@H](O)[C@@H](F)C5)nccc34)ccc2N1 (relative stereo) [Example 204, (cis)-5-[7-(3-Fluoro-4-hydroxy-1-piperidyl)-2-phenyl-pyrazolo[1,5-c]pyrimidin-3-yl]indolin-2-one]	1.26	–
O=C1Cc2cc(-c3c(-c4ccc(F)cc4)nn4c(N5CC(CO)C5)nccc34)ccc2N1 [Example 180, 5-[2-(4-Fluorophenyl)-7-[3-(hydroxymethyl)azetidin-1-yl]pyrazolo[1,5-c]pyrimidin-3-yl]indolin-2-one]	2	–
O=C1Cc2cc(-c3c(-c4ccc(F)cc4)nc4c(N5CC(CO)C5)nccn34)ccc2N1 [Example 64, 5-[2-(4-Fluorophenyl)-8-[3-(hydroxymethyl)azetidin-1-yl]imidazo[1,2-a]pyrazin-3-yl]indolin-2-one]	0.794	–
O=C1CCN(c2nccn3c(-c4ccc5c(c4)CC(=O)N5)c(-c4ccc(F)cc4)nc23)CC1 [Example 109, 5-(2-(4-Fluorophenyl)-8-(4-oxopiperidin-1-yl)imidazo[1,2-a]pyrazin-3-yl)indolin-2-one]	0.0631	–
O=C1Cc2cc(-c3c(-c4ccncc4)nc4c(N5CCC(O)CC5)nccn34)ccc2N1 [Example 215, 5-[8-(4-Hydroxy-1-piperidyl)-2-(4-pyridyl)imidazo[1,2-a]pyrazin-3-yl]indolin-2-one]	39.8	–
Nc1nccn2c(-c3ccc4c(c3)CC(=O)N4)c(-c3ccc(F)cc3)nc12 [Example 248, 5-[8-Amino-2-(4-fluorophenyl)imidazo[1,2-a]pyrazin-3-yl]indolin-2-one]	5010	–
